The text below walks through data of patent US4845130A, “Antihyperlipidemic amines” (United States Borax & Chemical Corporation, priority 1988, dated 1989).

Like-named read-outs stand apart in the source and are kept apart here.

The subject of experiment [1] is serum cholesterol. Put plainly: Serum cholesterol (modified Liebermann-Burchard reaction) in mice. Particulars: for response vs control in vivo at 20 mg/kg: Mus musculus, 20 mg./kg./day intraparenterally, male CF1 mice; for Serum cholesterol, % of Control, Day 9 / Serum cholesterol, % of Control, Day 16: 8 mg./kg/day, procedure of Example 1. It is filed as in vivo, male CF1 mice. The method, then: (§1) For determining hypolipidemic activity, representative compounds of this invention were suspended in an aqueous 1% carboxymethylcellulose solution and tested at 20 mg./kg./ day administered intraparenterally to male CF1 mice (~25 g.). Six animals were used for each test. On days 9 and 16, blood was collected by tail vein bleeding and the serum separated by centrifugation for three minutes. Serum cholesterol levels were determined by a modified Liebermann-Burchard reaction. Serum triglyceride levels were also determined at 16 days using a Fisher-Hycel Triglyceride Test Kit.
(§2) The procedure of Example 1 was repeated with octade-cylamine and N,N-dimethyl-n-octadecylamine at a dosage of 8 mg./kg/ day.

Another experiment concerns serum triglyceride. Put plainly: Serum triglyceride (Fisher-Hycel Triglyceride Test Kit) in mice. It is filed as in vivo, male CF1 mice. To be noted: Mus musculus, 384 h, Day 16; for response vs control in vivo at 20 mg/kg: 20 mg./kg./day intraparenterally; for response vs control in vivo at 8 mg/kg: 8 mg./kg/day, procedure of Example 1. The method, then: as §1, §2
In experiment [2] the test system is serum cholesterol. Put plainly: Serum cholesterol (modified Liebermann-Burchard reaction) in mice. It is filed as in vivo. To be noted: Mus musculus, clofibrate at its therapeutic dose of 150 mg., male CF1 mice.
For experiment [3] the following is noted: 2.5 mg/kg in mice; cited from earlier work.
Experiment [4] concerns ATP dependent citrate lyase. To be noted: in vivo; cited from earlier work.
The next experiment concerns acetyl CoA synthetase. To be noted: in vivo; cited from earlier work.
Experiment [5] concerns phosphatidate phosphohydrolase. Particulars: in vivo; cited from earlier work.
For a further experiment, the system named is cholesterol excretion. To be noted: mouse, in vivo; cited from earlier work.
Where [6] appears, read: 216 h, Day 9, read-out: Serum Cholesterol, % of Control, Day 9.
Where [7] appears, read: 384 h, Day 16, read-out: Serum Cholesterol, % of Control, Day 16.

Take `CCCCCCCCCCCCCCCCN` [1-hexadecylamine]: the response vs control in vivo at 20 mg/kg worked out at 39 ± 5% in the experiment with serum cholesterol [1] (setting [6]), 35 ± 4% in the experiment with serum cholesterol [1] (setting [7]) and 63 ± 6% with serum triglyceride (male CF1 mice).

For the compound `CCCCCCCCCCCCCCN` [1-tetradecylamine], the response vs control in vivo at 20 mg/kg with serum cholesterol [1] (setting [6]) was 50 ± 4%; in the experiment with serum cholesterol [1] (setting [7]), 34 ± 3%; in the experiment with serum triglyceride (male CF1 mice), 54 ± 6%.

With `CCCCCCCCCCCCCCCCCCN(C)C` [N,N-dimethyl-n-octadecylamine], the “Serum cholesterol, % of Control, Day 9” value with serum cholesterol [1] (Day 9) is 91 ± 5 % of Control. In addition, the “Serum cholesterol, % of Control, Day 16” value with serum cholesterol [1] (Day 16) is given as 79 ± 5 % of Control. The response vs control in vivo at 20 mg/kg in the experiment with serum cholesterol [1] (setting [6]) is 76 ± 6%; in the experiment on serum cholesterol [1] (setting [7]), 61 ± 5%; in the experiment with serum triglyceride (male CF1 mice), 56 ± 3%. The same compound yielded a response vs control in vivo at 8 mg/kg with serum triglyceride of 84 ± 6%.

For `CCCCCCCCCCCCCCCCCCNC` [N-methyloctadecylamine], the response vs control in vivo at 20 mg/kg with serum cholesterol [1] (setting [6]) was 51 ± 5%; with serum cholesterol [1] (setting [7]) it was 44 ± 4%; in the experiment on serum triglyceride (male CF1 mice), 64 ± 6%.

For the compound `CCOC(=O)C(C)(C)Oc1ccc(Cl)cc1` [clofibrate], the response vs control in vivo at 150 mg in the experiment with serum triglyceride (clofibrate at its therapeutic dose of 150 mg., male CF1 mice) was 75 ± 5%; in the experiment with serum cholesterol [2] (setting [6]), 88 ± 7%; in the experiment on serum cholesterol [2] (setting [7]) it was 87 ± 5%.

For the compound `CCCCCCCCCCN` [decylamine], the figures for the response vs control in vivo at 20 mg/kg with serum cholesterol [1] (setting [6]), in the experiment with serum cholesterol [1] (setting [7]) and in the experiment on serum triglyceride (male CF1 mice) were 48 ± 4%, 38 ± 5% and 59 ± 6%, respectively.

With `CCCCCCCCCCCCN` [dodecylamine], the response vs control in vivo at 20 mg/kg amounted to 63 ± 6% in the experiment on serum cholesterol [1] (setting [6]), 61 ± 5% in the experiment on serum cholesterol [1] (setting [7]) and 64 ± 4% in the experiment on serum triglyceride (male CF1 mice).

In the case of `CCCCCCCCCCCCCCCCCCN` [octadecylamine], the “Serum cholesterol, % of Control, Day 9” value with serum cholesterol [1] (Day 9) is on record as 63 ± 3 % of Control. Also, the “Serum cholesterol, % of Control, Day 16” value in the experiment with serum cholesterol [1] (Day 16) is given as 57 ± 4 % of Control. The response vs control in vivo at 20 mg/kg in the experiment with serum cholesterol [1] (setting [6]) was found to be 72 ± 5%; in the experiment with serum cholesterol [1] (setting [7]) it was 64 ± 4%; in the experiment with serum triglyceride (male CF1 mice), 56 ± 4%. For the same compound, the response vs control in vivo at 8 mg/kg in the experiment with serum triglyceride stood at 60 ± 5%.

For `CCCCCCCCCCCCCN` [tridecylamine], the response vs control in vivo at 20 mg/kg in the experiment with serum cholesterol [1] (setting [6]) came to 69 ± 5%; in the experiment on serum cholesterol [1] (setting [7]), 67 ± 5%; in the experiment with serum triglyceride (male CF1 mice), 73 ± 7%.

On to `CCCCCCCCCCCN` [undecylamine], for which the response vs control in vivo at 20 mg/kg in the experiment on serum cholesterol [1] (setting [6]) turned out to be 61 ± 5%; in the experiment on serum cholesterol [1] (setting [7]), 57 ± 6%; with serum triglyceride (male CF1 mice), 66 ± 5%.

“tetrakis-u-(trimethylamine-borane carboxyato) bis(trimethylaminecarboxyborane)-dicopper (II)”: in experiment [3], the “hypolipidemic activity” value is reported as “potent hypolipidemic agent”. For the same compound, in experiment [4], the “ATP dependent citrate lyase” value is reported as “lower”. Besides, in the experiment with acetyl CoA synthetase, the “acetyl CoA synthetase” value is recorded as “lower”. Moreover, the “phosphatidate phosphohydrolase” value in experiment [5] is reported as “lower”. Besides, the “cholesterol excretion from the body” value in the experiment with cholesterol excretion is “accelerate cholesterol excretion from the body”.
